{"source": "patent US9132131B2", "about": "“Use of adenosine A3 receptor agonists for treatment of neuropathic pain” (Saint Louis University, priority 2011, dated 2015)", "key": {"[1]": {"tested_on": "paclitaxel-induced neuropathic pain", "experiment": "Paclitaxel-induced neuropathic pain (mechano-allodynia, mechano-hyperalgesia)", "type": "in vivo, rats"}, "[2]": {"tested_on": "bortezomib-induced neuropathic pain", "experiment": "Bortezomib-induced neuropathic pain (mechano-allodynia, mechano-hyperalgesia)", "type": "in vivo, rats", "method": "Bortezomib or vehicle (5% Tween 80, 5% ethanol) was injected i.p. in rats on five consecutive days (D0-D4; 0.2 mg/kg) for a final cumulative dose of 1 mg/kg (G. J. Bennett and W. H. Xiao, personal communication). Test substances or their vehicle were given i.p. (0.2 ml) 30 min before the chemotherapeutic agent or its vehicle on D0 (baseline) and then daily until D15 or D17. Behavioral responses (mechano-allodynia and mechano-hyperalgesia) were measured on D0 prior to the first i.p. injection of the chemotherapeutic agent and subsequently at various time points. If testing coincided with a day when rats received test substance, behavioral measurements were taken always before the injection of the test substance. Chemotherapeutic treatments result in bilateral allodynia and hyperalgesia without differences in left and right paw withdrawal threshold (PWT, grams) in any group at any time point, thus values from both paws were averaged.\nBehavioral testing. […] The plantar aspect of hindpaws were probed three times with calibrated von Frey filaments (Stoelting, mice: 0.07-2.00 grams; rats: 0.407-26 grams) according to the “up-and-down” method. […] Mechanical threshold was assessed three times at each time point to yield a mean value, reported as PWT (grams). […] Mechano-hyperalgesia was assessed in rats by the Randall and Sellitto paw pressure test using an analgesiometer (Ugo Basile). […]"}, "[3]": {"tested_on": "acute nociception (tail flick latency)", "experiment": "Tail flick assay for acute nociception", "type": "in vivo, mice", "settings": "IB-MECA, MRS1898 0.5 μmol/kg i.p. at 30, 60, 120 minutes; morphine 35 μmol/kg s.c. positive control", "method": "(§1) Tail flick and hot plate assay in mice for acute nociception. The tail flick test, which measures latency(s) of tail withdrawal from a noxious radiant heat source (Ugo Basile; model number 37360) was used to measure thermal nociceptive sensitivity in mice with baseline latencies of 3-5 seconds and a cut-off time of 15 seconds to prevent tissue injury. Tail flick latencies were taken before and at 30, 60 and 120 minutes after i.p. injection of IB-MECA, MRS1898 (0.5 μmol/kg) or its vehicle (0.1% DMSO in saline). For the hot plate test, nociceptive thresholds were determined as previously reported by our group by measuring latencies (in seconds) of mice placed in a transparent glass cylinder on a hot plate maintained at 52° C.. Responses indicative of nociception included intermittent lifting and/or licking of the hindpaws or escape behavior. Hot plate latencies were taken in mice from all groups before and after drug administration. A cut-off latency of 15 seconds was employed to prevent tissue damage."}, "[4]": {"tested_on": "acute nociception (hot plate latency)", "experiment": "Hot plate assay for acute nociception", "type": "in vivo, mice", "settings": "0.5 μmol/kg", "method": "as §1"}, "[5]": {"tested_on": "motor function (Rotarod latency)", "experiment": "Rotarod test", "type": "in vivo, mice", "settings": "0.5 μmol/kg i.p., 30, 60, 120 minutes", "method": "Rotarod test in mice: Mice were trained before experimentation for their ability to remain for 60 seconds on a revolving Rotarod for mice apparatus (Ugo Basile; accelerating units increasing from 5 to 40 rpm in 60 sec). Mice were injected i.p. with IB-MECA, MRS1898 (0.5 μmol/kg) or vehicle (0.1% DMSO in saline) and then examined at 30, 60 and 120 minutes after administration for motor impairments on the Rotarod. The latency time to fall off the Rotarod was determined with a cut-off time of 120 seconds."}, "[6]": {"tested_on": "SKBR3 breast cancer cells", "experiment": "MTT cell survival assay, SKBR3", "type": "cell-based, human", "method": "Cells were cultured and assayed in DMEM (SKBR3; human breast cancer cells), L15 (SW480; human colon cancer cells) or RPMI […] (RPMI 8226; human multiple myeloma cells) supplemented with heat-denatured 10% FBS and penicillin/streptomycin at 37° C., 0% (SW480) or 5% CO2 (SKBR3 and RPMI 8226), 95% humidity. The antitumor activities of these agents were measured in cells (6.25×10^4 cells/well) cultured overnight in 24-well plates (SKBR3 and SW480; BD Biosciences) or 12 mm×7.5 mm culture tubes (RPMI 8226; BD Biosciences) in complete media. […] Two naïve control wells were included as a control for 100% survival. Cell survival was determined using a MTT (3-(4,5-dimethylthiazol-2-yl)-2,5-diphenyltetrazolium bromide) assay adapted from a previously described assay. Cells were incubated with MTT (500 μg/ml) for 75 minutes at 37° C., 0% or 5% CO2, 95% humidity, removing the media and dissolving the tetrazolium crystals in isopropanol. […] The antitumor effects of IB-MECA alone were determined as % Survivability=(A560-570 nm of chemotherapeutic vehicle+IB-MECA)/(mean A560-570 nm of the naïve control wells)×100. The LD50 of each chemotherapeutic agent+IB-MECA or its vehicle was calculated using three-parameter non-linear analysis using % Survivability=(A560-570 nm of chemotherapeutic+IB-MECA or its vehicle)/(mean A560-570 nm chemotherapeutic vehicle+vehicle of IB-MECA)×100. The top and bottom plateaus were constrained using GraphPad Prism v5.03 (GraphPad Software, Inc.)."}}, "data": [{"compound": "CNC(=O)[C@H]1O[C@@H](n2cnc3c(NCc4cccc(I)c4)ncnc32)[C@H](O)[C@@H]1O", "note": "[IB-MECA, N^6-(3-iodobenzyl)-adenosine-5′-N-methyluronamide]", "values": [{"measurement": "effect on paclitaxel-induced neuropathic pain", "setting": "[1]; 0.02-0.2 μmol/kg/d i.p. D0-D15", "result": "dose-dependently attenuated"}, {"measurement": "effect on PWT when administered alone (vehicle groups)", "setting": "[1]; IB-MECA 0.2 μmol/kg/d in any of the chemotherapy models, MRS1523 5 μmol/kg/d", "result": "did not affect PWT"}, {"measurement": "neuropathic pain after discontinuation of treatment on D15", "setting": "[1]; paclitaxel model, followed through D25", "result": "did not emerge through D25"}, {"measurement": "D16 ED50, prevention of paclitaxel-induced mechano-allodynia", "setting": "[1]; rats, daily i.p. D0-D15", "result": 0.02, "unit": "µmol/kg/day"}, {"measurement": "D16 ED50, prevention of paclitaxel-induced mechano-hyperalgesia", "setting": "[1]; rats, daily i.p. D0-D15", "result": 0.03, "unit": "µmol/kg/day"}, {"measurement": "effect on development of bortezomib-induced mechano-allodynia and mechano-hyperalgesia", "setting": "[2]; 0.2 μmol/kg/d (not shown)", "result": "blocked the development"}, {"measurement": "neuropathic pain after treatment was discontinued on D17", "setting": "[2]; bortezomib model", "result": "did not emerge"}, {"measurement": "effect on tail flick latency", "setting": "[3]", "result": "lacked effect"}, {"measurement": "effect on the hot plate", "setting": "[4]", "result": "had no effect"}, {"measurement": "Rotarod deficits", "setting": "[5]", "result": "did not induce Rotarod deficits"}, {"measurement": "effect on the antitumor effects of paclitaxel, oxaliplatin or bortezomib", "setting": "[6]; IB-MECA 10 nM, human breast, colon and multiple myeloma cancer cells", "result": "did not diminish"}, {"measurement": "decrease in cell survival when used alone", "setting": "[6]; IB-MECA 10 nM, stated for the cell lines tested (SKBR3, SW480, RPMI 8226)", "result": "< 20", "unit": "%"}, {"measurement": "effect of higher doses on the cell lines", "setting": "[6]; doses above 10 nM, all three cell lines", "result": "direct antitumor effects"}]}]}
